Experimental findings from patent US8207203B2, “Pyridylisoxazole derivatives” (Aska Pharmaceutical Co., Ltd., priority 2006, dated 2012) are described below.

In one series the test system is TNF-α production. The experiment in a line: Measurement of TNF-α production-inhibiting action (LPS-stimulated THP-1 cells, ELISA). It counts as cell-based. The following applies: Homo sapiens; test substance 100 nM; THP-1 cells with LPS, 2 hours' culture; TNF-α in supernatant by ELISA; read-out: TNF-α generation-inhibiting action (inhibition: rate: %, 100 nM). As to the method:
(1) Measurement of TNF-α Production-Inhibiting Action
THP-1, human-derived culture cells (purchased from Dainippon Pharmaceutical Co.), was suspended (1×10^5 cells/mL) in RPMI 1640 medium (10% fetal bovine serum, containing 100 units/mL of penicillin). The THP-1 cell suspension 1.6 mL was inoculated in a 24-well culture plate, to which further a solution of test substance as dissolved in RPMI 1640 medium to make the final concentration of the test substance 100 nM and 0.2 mL of LPS (E. coli 055: B5-derived, dissolved in RPMI 1640 medium, Difco) of 10 μg/mL in concentration were added, followed by 2 hours' culture under the conditions of 37° C. and 5% CO2. The supernatant which was obtained upon centrifuge (500×g, 5 minutes) was measured with ELISA (Amersham Biosciences, TNF-α Human, ELISA Biotrak System) to quantize TNF-α. The TNF-α production inhibition rate (%) at 100 nM of each test substance was calculated according to the following formula, […]
(An ELISA detects its analyte on a solid surface through an enzyme-linked reagent.)

A short description of series [1]: Measurement of the compounds' metabolic rate (human liver S9, LC/MS/MS). It counts as in vitro ADME. To be noted: human liver S9 0.5 mg protein/mL, compound 1 μmol/L, NADPH generating system, pH7.4, 37° C. The procedure: (2) Measurement of the Compounds' Metabolic Rate:
Each test compound was added to potassium phosphate buffer (50 mmol/L, pH7.4) containing NADPH generating system (comprising 3.3 mmol/L MgCl2, 3.3 mmol/L glucose 6-phosphate, 1.3 mmol/L β-NADP^+ and 0.4 unit/mL glucose 6-phosphate dehydrogenase) (in which occasion the final concentration was rendered 1 μmol/L) and incubated at 37° C. for 2 minutes. After the incubation, a suspension of human liver S9 (the supernatant fraction obtained by centrifuging comminuted human liver cell fluid at 9000×g) in potassium phosphate buffer was added to the system, to the final concentration of 0.5 mg protein/mL. This reaction mixture was incubated at 37° C. for 5 minutes, and to which 4 volume times the reaction mixture of acetonitrile was added, mixed, cooled with ice and centrifuged (2000×g, 10 minutes). A part of the supernatant was taken and analyzed by LC/MS/MS, to determine the remaining rate of unchanged substance in the reaction solution. The results are shown in the following Table A, concurrently with the measured results of TNF-α production-inhibiting action in (1) above.

For `Cc1cccc(-c2noc(NC(=O)CCc3ccccc3)c2-c2ccncc2)c1` [Example 103, 3-(3-Methylphenyl)-5-(3-phenylpropionylamino)-4-(4-pyridyl)-isoxazole], the inhibition at 0.1 µM in the series with TNF-α production worked out at 65.5%. The “percent of unchanged compound remaining after 5 min” value in series [1] came out at 17.6%.

As for `Cc1cccc(-c2noc(NC(=O)CCc3ccccc3C)c2-c2ccncc2)c1` [Example 106, 3-(3-Methylphenyl)-5-[(2-methylphenyl)propionylamino]-4-(4-pyridyl)isoxazole], in the series with TNF-α production, the inhibition at 0.1 µM was 52.9%. The “percent of unchanged compound remaining after 5 min” value in series [1] is listed as 23.3%.

Regarding `Cc1ccc(F)c(-c2noc(NC(=O)CCc3cccc(Cl)c3)c2-c2ccncc2)c1` [Example 117, 5-[(3-Chlorophenyl)propionylamino]-3-(2-fluoro-5-methylphenyl)-4-(4-pyridyl)isoxazole], the inhibition at 0.1 µM in the series on TNF-α production was 58.1%. In addition, the “percent of unchanged compound remaining after 5 min” value in series [1] came out at 50.5%.

As to `Cc1cc(-c2noc(NC(=O)Cc3ccccc3)c2-c2ccncc2)ccc1F` [Example 123, 3-(4-Fluoro-3-methylphenyl)-5-(phenylacetylamino)-4-(4-pyridyl)-isoxazole], the inhibition at 0.1 µM with TNF-α production was found to be 78.1%. The “percent of unchanged compound remaining after 5 min” value in series [1] worked out at 58.0%.

As for `Cc1cc(-c2noc(NC(=O)Cc3ccccc3Cl)c2-c2ccncc2)ccc1F` [Example 124, 5-[(2-Chlorophenyl)acetylamino]-3-(4-fluoro-3-methylphenyl)-4-(4-pyridyl)isoxazole], the inhibition at 0.1 µM in the series with TNF-α production worked out at 85.2%. Besides, the “percent of unchanged compound remaining after 5 min” value in series [1] is 59.7%.

In the case of `Cc1cc(-c2noc(NC(=O)CCc3ccccc3)c2-c2ccncc2)ccc1F` [Example 125, 3-(4-Fluoro-3-methylphenyl)-5-(3-phenylpropionylamino)-4-(4-pyridyl)isoxazole], the inhibition at 0.1 µM with TNF-α production came to 66%. Further, the “percent of unchanged compound remaining after 5 min” value in series [1] was 20.1%.
